Where a name gives a salt, the structure may show the parent alone. Read-outs that look alike come from different tables or passages of the source.
Tested on: Hela Cells
Test: Cellular ER stress model (tunicamycin, WST-8 cell viability)
Settings: for viability at 2.5 µM: Homo sapiens, HeLa, 48 h
[1] = read-out: % Cell Survival Cmpd(2.5 μM) + Tuni, Hela cells, compound 2.5 μM + tunicamycin, WST-8 viability 48 hours after tunicamycin treatment
[2] = read-out: Compounds ERS (vs Tn), ERS activity vs Tuni = % cell survival (compound)/% cell survival (tunicamycin), compound 2.5 μM

SMILES | viability at 2.5 µM [1] [%] | viability at 2.5 µM [2] [%] | also measured
N=C(N)NCC(O)c1c(Cl)cccc1Cl (stereo not shown) [JM3-27-2, 1-(2-(2,6-dichlorophenyl)-2-hydroxyethyl)guanidine] | 28.6 | 109 | 
N=C(N)N/N=C/c1c(F)cccc1C(F)(F)F [JM1-223-2, (E)-2-(2-fluoro-6-(trifluoromethyl)benzylidene)hydrazine-1-carboximidamide acetate] | 37.5 | 54 | 
N=C(N)NC(=O)Cc1c(Cl)cccc1[N+](=O)[O-] [JM2-275-2, N-carbamimidoyl-2-(2-chloro-6-nitrophenyl)acetamide hydrochloride] | 29.8 | 101 | 
Cc1[nH]c(N/N=C/c2c(Cl)cccc2Cl)nc(=O)c1C [JM3-191-2, (E)-2-(2-(2,6-dichlorobenzylidene)hydrazinyl)-5,6-dimethylpyrimidin-4(1H)-one] | 40.6 | 175 | 
Cc1cccc(C)c1NC1=NCCN1 [JM2-59-2, N-(2,6-dimethylphenyl)-4,5-dihydro-1H-imidazol-2-amine] |  |  | viability at 2.5 µM (read-out: % Cell Survival Cmpd(2.5 μM) + Tuni): 46.2%; viability at 2.5 µM (read-out: Compounds ERS (vs Tn)): 67%
N=C(N)N/N=C/c1cccs1 [JM2-279-2, (E)-2-(thiophen-2-ylmethylene)hydrazine-1-carboximidamide] | 32.1 | 122 | 
Clc1cccc(/C=N/NC2=NCCCN2)c1Cl [JM3-153-2, (E)-2-(2-(2,3-dichlorobenzylidene)hydrazinyl)-1,4,5,6-tetrahydropyrimidine hydrochloride] | 36 | 155 | 
CCc1cccc(Cl)c1/C=N/NC(=N)N [JM3-81-2, (E)-2-(2-chloro-6-ethylbenzylidene)hydrazine-1-carboximidamide acetate] | 29.9 | 130 | 
N=C(N)N/N=C/c1ccccc1O [JM3-17-2, (E)-2-(2-hydroxybenzylidene)hydrazine-1-carboximidamide acetate] | 28.7 | 109 | 
Clc1cccc(CC2=NCCCN2)c1Cl [JM3-181-2, 2-(2,3-dichlorobenzyl)-1,4,5,6-tetrahydropyrimidine] | 19.6 | 102 | 
N=C(N)N/N=C/c1c(Br)cccc1[N+](=O)[O-] [JM1-175-2, (E)-2-(2-bromo-6-nitrobenzylidene)hydrazine-1-carboximidamide acetate] | 44.9 | 65 | 
Cc1[nH]c(N/N=C/c2c(F)cccc2Cl)nc(=O)c1C [JM3-207-2, (E)-2-(2-(2-chloro-6-fluorobenzylidene)hydrazinyl)-5,6-dimethylpyrimidin-4(1H)-one] | 23.1 | 120 | 
N=C(N)N/N=C/c1c(Cl)ccnc1Cl [JM3-29-2, (E)-2-((2,4-dichloropyridin-3-yl)methylene)hydrazine-1-carboximidamide acetate] | 32.2 | 122 | 
N=C(N)N/N=C/c1ccccc1I [JM3-183-2, (E)-2-(2-iodobenzylidene)hydrazine-1-carboximidamide acetate] | 24.2 | 104 | 
Fc1cccc(Cl)c1/C=N/NC1=NCCN1 [JM2-95-2, (E)-2-(2-(2-chloro-6-fluorobenzylidene)hydrazinyl)-4,5-dihydro-1H-imidazole hydrochloride] | 53 | 121 | 
Clc1cccc(Cl)c1Cc1ncc[nH]1 [JM3-131-2, 2-(2,6-dichlorobenzyl)-1H-imidazole] | 22.8 | 100 | 

SMILES | viability at 2.5 µM [1] [%] | viability at 2.5 µM [2] [%] | also measured
CCCCNC(=N)N/N=C/c1c(Cl)cccc1Cl [JM3-161-2, (E)-N-butyl-2-(2,6-dichlorobenzylidene)hydrazine-1-carboximidamide hydroiodide] | 14.7 | 63 | 
O=C(/C=C/c1ccccc1)NC(NC(=S)Nc1ccc(Cl)cc1)C(Cl)(Cl)Cl (stereo not shown) [Sal003] |  |  | Compounds ERS (vs Tn) (ERS activity vs Tuni = % cell survival (compound)/% cell survival (tunicamycin), compound 2.5 μM): 1.03; % Cell Survival Cmpd(2.5 μM) + Tuni (Hela cells, compound 2.5 μM + tunicamycin, WST-8 viability 48 hours after tunicamycin treatment): 33.17%
N=C(N)N/N=C/c1ccc(-c2ccccc2)cc1Cl [JM3-63-2, (E)-2-((3-chloro-[1,1′-biphenyl]-4-yl)methylene)hydrazine-1-carboximidamide acetate] | 15.9 | 60 | 
O=[N+]([O-])c1cccc(Cl)c1/C=N/NC1=NCCN1 [JM2-89-2, (E)-2-(2-(2-chloro-6-nitrobenzylidene)hydrazinyl)-4,5-dihydro-1H-imidazole hydrochloride] | 56.9 | 130 | 
N=C(N)N/N=C/c1cc(C(F)(F)F)ccc1Cl [JM1-221-2, (E)-2-(2-chloro-5-(trifluoromethyl)benzylidene)hydrazine-1-carboximidamide acetate] | 38.6 | 56 | 
Cc1cc(=O)nc(N/N=C/c2ccccc2Cl)[nH]1 [JM3-215-3, (E)-2-(2-(2-chlorobenzylidene)hydrazinyl)-6-methylpyrimidin-4(1H)-one] | 21 | 110 | 
N=C(N)N/N=C/c1cc(F)ccc1Cl [JM1-185-2, (E)-2-(2-chloro-5-fluorobenzylidene)hydrazine-1-carboximidamide acetate] | 54.4 | 79 | 
NC(=O)N/N=C/c1ccccc1F [JM3-221-2, (E)-2-(2-fluorobenzylidene)hydrazine-1-carboxamide hydrochloride] | 28.9 | 122 | 
Cc1cccc(C)c1/C=N/NC(N)=S [JM1-121-2, (E)-2-(2,6-dimethylbenzylidene)hydrazine-1-carbothioamide] | 23.4 | 34 | 
Cc1[nH]c(N/N=C/c2cccc(Cl)c2Cl)nc(=O)c1C [JM3-195-2, (E)-2-(2-(2,3-dichlorobenzylidene)hydrazinyl)-5,6-dimethylpyrimidin-4(1H)-one] | 29.7 | 128 | 
Clc1ccc(/C=N/NC2=NCCN2)cc1Cl [JM2-91-2, (E)-2-(2-(3,4-dichlorobenzylidene)hydrazinyl)-4,5-dihydro-1H-imidazole hydrochloride] | 54.5 | 124 | 
Clc1cccc(Cl)c1/C=N/NC1=NCCCN1 [JM2-255-2, (E)-2-(2-(2,6-dichlorobenzylidene)hydrazinyl)-1,4,5,6-tetrahydropyrimidine hydrochloride] | 63.8 | 201 | 
NC(=S)N/N=C/c1ccc2ccccc2c1 [JM1-129-2, (E)-2-(naphthalen-2-ylmethylene)hydrazine-1-carbothioamide] | 24.1 | 35 | 
COc1cc(Cl)c(/C=N/NC(=N)N)c(Cl)c1 [JM2-63-2, (E)-2-(2,6-dichloro-4-methoxybenzylidene)hydrazine-1-carboximidamide] | 44.6 | 65 | 
O=[N+]([O-])c1cccc(Br)c1/C=N/NC1=NCCN1 [JM2-109-2, (E)-2-(2-(2-bromo-6-nitrobenzylidene)hydrazinyl)-4,5-dihydro-1H-imidazole hydrochloride] | 50.2 | 108 | 
Cc1cccc(Cl)c1/C=N/NC1=NCCCN1 [JM2-265-2, (E)-2-(2-(2-chloro-6-methylbenzylidene)hydrazinyl)-1,4,5,6-tetrahydropyrimidine hydrochloride] | 47.2 | 179 | 
